The results in this text go back to ChEMBL document CHEMBL5325432, “Systematic study of 1,2,3-triazolyl sterols for the development of new drugs against parasitic Neglected Tropical Diseases” (Eur J Med Chem, 2023).

SMILES strings stand for the structures.

The subject of data set [1] is Leishmania donovani. Description: Antileishmanial activity against Leishmania donovani S1 promastigotes assessed as parasite growth inhibition incubated for 72 hrs by Alamar blue assay. In kind it is functional, organism-based. Conditions: S1, 72 h.
The test system of data set [2] is Trypanosoma brucei. Description: Antiparasitic activity against Trypanosoma brucei assessed as parasite growth inhibition incubated for 3 days by Alamar blue assay. Format: functional, organism-based. The following applies: 72 h.
In data set [3] the test system is Trypanosoma cruzi. Description: Antiparasitic activity against Trypanosoma cruzi epimastigotes assessed as parasite growth inhibition incubated for 14 days by Alamar blue assay. In kind it is functional, organism-based. Conditions: 336 h. Background: Resazurin is reduced to fluorescent resorufin, in cell work by metabolically active cells.
Data set [4] is described as follows: Cytotoxicity against African green monkey Vero cells incubated for 48 hrs. In kind it is toxicity, cell-based. The following applies: African green monkey (Chlorocebus sabaeus).
A short description of data set [5]: Selectivity index, ratio of IC50 for cytotoxicity against African green monkey Vero cells to IC50 for antiparasitic activity against Trypanosoma brucei assessed as parasite growth inhibition. In kind it is toxicity, cell-based. Conditions: read-out: Ratio IC50.
Data set [6] can be described thus: Selectivity index, ratio of IC50 for cytotoxicity against African green monkey Vero cells to IC50 for antileishmanial activity against Leishmania donovani S1 promastigotes assessed as parasite growth inhibition. Format: toxicity, cell-based. Conditions: read-out: Ratio IC50.

`CC(=O)O[C@H]1CC[C@@]2(C)C(=CC[C@H]3[C@@H]4CC[C@H]([C@@H](C)NCc5cn(Cc6ccccc6)nn5)[C@@]4(C)CC[C@@H]32)C1`: the IC50 is over 10 µM in data set [1], 1.15 µM in data set [2] and over 10 µM in data set [3]. This molecule also showed an IC50 at 48 h in data set [4] of over 7.16 µM. Moreover, the selectivity ratio in data set [5] is over 6.22.

Regarding `C[C@]12CC[C@H]3[C@@H](CC=C4C[C@@H](O)CC[C@@]43C)[C@@H]1CC[C@@H]2[C@@](C)(O)Cn1cc(CCCc2ccccc2)nn1`, the IC50 in data set [1] was over 10 µM; in data set [2], 2.27 µM; in data set [3] it was over 10 µM. Besides, in data set [4], the IC50 at 48 h was over 9.66 µM. The selectivity ratio in data set [5] was over 4.25.

Regarding `C[C@]12CC[C@H]3[C@@H](CC=C4C[C@@H](O)CC[C@@]43C)[C@@H]1CC[C@@H]2[C@@](C)(O)Cn1cc(CCO)nn1`, the IC50 in data set [1] was over 10 µM; in data set [2] it was 1.78 µM; in data set [3] it was over 10 µM. The molecule further displayed an IC50 at 48 h in data set [4] of over 11.3 µM. The selectivity ratio in data set [5] was over 6.33.

`C[C@]12CC[C@H]3[C@@H](CC=C4C[C@@H](O)CC[C@@]43C)[C@@H]1CC[C@@H]2[C@@](C)(O)Cn1cc(-c2ccccc2)nn1`: the IC50 in data set [1], in data set [2] and in data set [3] was over 10 µM in each case. In data set [4], this molecule returned an IC50 at 48 h of over 10.5 µM.

On to `C#CCNC[C@](C)(O)[C@H]1CC[C@H]2[C@@H]3CC=C4C[C@@H](O)CC[C@]4(C)[C@H]3CC[C@@]21C`, for which the IC50 in data set [1] is over 10 µM; in data set [2] it was 1.77 µM; in data set [3] it was over 10 µM. The same molecule had an IC50 at 48 h in data set [4] of over 12.3 µM. In addition, the selectivity ratio in data set [5] is over 6.95.

For `CCCCCCCCn1cc(CN[C@H](C)[C@H]2CC[C@H]3[C@@H]4CC=C5C[C@@H](OC(C)=O)CC[C@]5(C)[C@H]4CC[C@]23C)nn1`, the half-maximal inhibitory concentration (IC50) in data set [1] is over 10 µM; in data set [2], 1.98 µM; in data set [3], over 10 µM. Further, in data set [4], the IC50 at 48 h is over 9.04 µM. Moreover, the selectivity ratio in data set [5] was over 4.57.

For `C#CCN[C@H](C)[C@H]1CC[C@H]2[C@@H]3CC=C4C[C@@H](OC(C)=O)CC[C@]4(C)[C@H]3CC[C@]12C`, the IC50 in data set [1] was over 10 µM; in data set [2], 5.03 µM; in data set [3] it was over 10 µM. For the same molecule, in data set [4], the concentration for half-maximal inhibition (IC50) at 48 h is over 11.9 µM. Besides, the selectivity ratio in data set [5] is over 2.3.

For the molecule `COC(=O)c1cn(C[C@](C)(O)[C@H]2CC[C@H]3[C@@H]4CC=C5C[C@@H](O)CC[C@]5(C)[C@H]4CC[C@@]32C)nn1`, the IC50 in data set [1] is over 10 µM; in data set [2], 8.28 µM; in data set [3] it was over 10 µM. For the same molecule, the IC50 at 48 h in data set [4] was over 10.6 µM. In addition, in data set [5], the selectivity ratio is over 1.28.

For `CCOC(=O)Cn1cc(CNC[C@](C)(O)[C@H]2CC[C@H]3[C@@H]4CC=C5C[C@@H](O)CC[C@]5(C)[C@H]4CC[C@@]32C)nn1`, the IC50 in data set [1], in data set [2] and in data set [3] was over 10 µM in each case. The molecule further came in with a 50% inhibitory concentration (IC50) at 48 h in data set [4] of over 9.71 µM.

Turning to `C[C@]12CC[C@H]3[C@@H](CC=C4C[C@@H](O)CC[C@@]43C)[C@@H]1CC[C@@H]2[C@@](C)(O)CN=[N+]=[N-]`, the IC50 in data set [1], in data set [2] and in data set [3] was over 10 µM in each case. The IC50 at 48 h in data set [4] was over 12 µM.

With `CCOC(=O)Cn1cc(CN[C@H](C)[C@H]2CC[C@H]3[C@@H]4CC=C5C[C@@H](OC(C)=O)CC[C@]5(C)[C@H]4CC[C@]23C)nn1`, the IC50 in data set [1] is over 10 µM; in data set [2] it was 6.5 µM; in data set [3] it was over 10 µM. Also, the IC50 at 48 h in data set [4] is over 9.49 µM. For the same molecule, in data set [5], the selectivity ratio was over 1.46.

With `N=C(N)c1ccc(OCCCCCOc2ccc(C(=N)N)cc2)cc1` [PENTAMIDINE], the selectivity ratio in data set [6] worked out at 7.6.

As a reminder, the IC50 is the concentration needed to halve the response being measured.
